According to patent publication US20080063628A1, “METHODS TO PROMOTE CELL DIFFERENTIATION” (priority 2006, published 2008):

Tested on: early passage (P5) pancreatic-derived stromal cell line
Test: Two sequential low dose trichostatin A treatments, gene expression by RT-PCR (Example 7)
Type: cell-based, human
Details: for HNF (HNF-3 beta) gene expression / Insulin gene expression / Pdx-1 gene expression / glucagon gene expression: 1.25 μM 0-24 h + 96-120 h; for HNF-3 beta RT-PCR detection cycle / Pdx-1 RT-PCR detection cycle / glucagon RT-PCR detection cycle: 1.25 μM
Protocol: Several cell lines obtained from different amniotic fluid specimens (see Example 14) and pancreas donors (see Example 13) were tested with similar results. Two lines at similar passage number but derived from different amniotic fluid specimens are shown in Table VII-A and Table VII-B for this example. One of these cell lines was also used in examples 2 and 4 above. In addition, this example also contains comparison data in Table VII-C and Table VII-D for a single pancreatic-derived stromal line grown to early and late passage number.
Amniotic fluid derived cells or pancreatic-derived stromal cells were seeded into 24-well tissue culture plates at a density of 5000/cm^2 and cultured in AMNIOMAX (Invitrogen) or DMEM with 10% FBS respectively under standard cell culture conditions until confluent. After the cells reached confluency, amniotic fluid derived cells were treated at time 0 hours with a dose of 500 nM trichostatin A, and pancreatic-derived stromal cells were treated with a dose of 1.25 μM trichostatin A solubilized in DMSO and medium. At time 24 hours, cell cultures underwent a complete medium change to remove all traces of trichostatin A. At time 96 hours, cell cultures were re-fed with fresh medium and received a second dose of trichostatin A at the same concentration as used previously. […]
Samples were taken daily for RT-PCR at the times indicated in Table VII-A to D. The culture medium was removed, and samples were rinsed in PBS then collected in RLT with β-mercaptoethanol (Qiagen). RNA was purified using the RNeasy Mini Kit (Qiagen) and RNA quantity and quality were determined using a spectrophotometer. cDNA was made using the iScript cDNA synthesis kit (BioRad).
Samples of 20 ng cDNA were used in each reaction to determine the expression levels of the following genes in amniotic fluid-derived cells: Gata1, HNF-3 beta, Pdx-1, insulin, and Sox17. Similarly, samples of 20 ng cDNA were used in each reaction to determine the expression level of the following genes in pancreatic-derived cells: glucagon, HNF-3 beta, insulin and Pdx-1. Real-Time PCR was performed on the Applied Biosystems 7500, and data was analyzed using the accompanying software according to the methods described in Example 15.
Real-time PCR amplifcation and quantitative analysis. Unless otherwise stated, all reagents were purchased from Applied Biosystems. Real-time PCR reactions were performed using the ABI PRISM™ 7500 Sequence Detection System. TAQMAN™ FAST UNIVERSAL PCR MASTER MIX™ (ABI, CA) was used with 20 ng of reverse transcribed RNA in a total reaction volume of 20 μl. Each cDNA sample was run in duplicate to allow correction of pipetting errors. Primers and FAM-labeled TAQMAN™ probes were used at concentrations of 200 nM. The level of expression for each target gene was normalized using the pre-developed Applied Biosystem's human glyceraldehyde-3-phosphate dehydrogenase (GAPDH) endogenous control kit. Primers and probes were designed using either ABI PRISM PRIMER EXPRESS™ software or a pre-developed ABI gene analysis kit. For each gene, either one of the primers or the probe were designed to be exon-boundary spanning. This eliminated the possibility of the primers/probe binding to any genomic DNA present. The primer and probe sets are listed as follows: Pdx-1 (Hs00426216), Insulin (Hs00355773), glucagon (Hs00174967), and FoxA2 (HNF 3-beta) (Hs00232764). The remaining primers were designed using the PRIMERS program (ABI, CA). After an initial 95° C. incubation for 20 sec, samples were cycled 40 times in two stages: a denaturation step at 95° C. for 3 sec, followed by an annealing/extension step at 60° C. for 30 sec.
For each primer/probe set, a cycle time value was determined as the cycle number at which the fluorescence intensity of the PCR reaction reached a specific value in the middle of the exponential region of amplification. […]

[1] = 24 hours following the addition

Structure (SMILES): CC(/C=C/C(=O)NO)=C\[C@@H](C)C(=O)c1ccc(N(C)C)cc1 [trichostatin A]
- HNF (HNF-3 beta) gene expression (24 hrs): +++ (detectable at less than 35 cycles by RT-PCR with SE less than 0.9)
- Insulin gene expression (24 hrs): nd (not detectable at >40 cycles by RT-PCR)
- Pdx-1 gene expression (24 hrs): +++ (detectable at less than 35 cycles by RT-PCR with SE less than 0.9)
- glucagon gene expression (24 hrs): +++ (detectable at less than 35 cycles by RT-PCR with SE less than 0.9)
- HNF (HNF-3 beta) gene expression (48 hrs): nd (not detectable at >40 cycles by RT-PCR)
- Insulin gene expression (48 hrs): nd (not detectable at >40 cycles by RT-PCR)
- Pdx-1 gene expression (48 hrs): nd (not detectable at >40 cycles by RT-PCR)
- glucagon gene expression (48 hrs): + (detectable between 35 and 40 cycles by RT-PCR)
- HNF (HNF-3 beta) gene expression (72 hrs): nd (not detectable at >40 cycles by RT-PCR)
- Insulin gene expression (72 hrs): nd (not detectable at >40 cycles by RT-PCR)
- Pdx-1 gene expression (72 hrs): nd (not detectable at >40 cycles by RT-PCR)
- glucagon gene expression (72 hrs): nd (not detectable at >40 cycles by RT-PCR)
- HNF (HNF-3 beta) gene expression (96 hrs): nd (not detectable at >40 cycles by RT-PCR)
- Insulin gene expression (96 hrs): nd (not detectable at >40 cycles by RT-PCR)
- Pdx-1 gene expression (96 hrs): nd (not detectable at >40 cycles by RT-PCR)
- glucagon gene expression (96 hrs): nd (not detectable at >40 cycles by RT-PCR)
- HNF (HNF-3 beta) gene expression (120 hrs): +++ (detectable at less than 35 cycles by RT-PCR with SE less than 0.9)
- Insulin gene expression (120 hrs): nd (not detectable at >40 cycles by RT-PCR)
- Pdx-1 gene expression (120 hrs): +++ (detectable at less than 35 cycles by RT-PCR with SE less than 0.9)
- glucagon gene expression (120 hrs): + (detectable between 35 and 40 cycles by RT-PCR)
- HNF (HNF-3 beta) gene expression (144 hrs): nd (not detectable at >40 cycles by RT-PCR)
- Insulin gene expression (144 hrs): nd (not detectable at >40 cycles by RT-PCR)
- Pdx-1 gene expression (144 hrs): nd (not detectable at >40 cycles by RT-PCR)
- glucagon gene expression (144 hrs): + (detectable between 35 and 40 cycles by RT-PCR)
- HNF-3 beta RT-PCR detection cycle [1]: 34 cycles
- Pdx-1 RT-PCR detection cycle [1]: 34 cycles
- HNF-3 beta RT-PCR detection cycle (after the second addition): 33 cycles
- Pdx-1 RT-PCR detection cycle (after the second addition): 33 cycles
- glucagon RT-PCR detection cycle (after the second treatment cycle): 37 cycles
- glucagon RT-PCR detection cycle (first 48 hours after addition): 34 cycles
